Results: patent US20260232710A1, “AGENTS, COMPOSITIONS, AND METHODS FOR SUPPORTING BEHAVIOURAL DEVELOPMENT” (SOCIÉTÉ DES PRODUITS NESTLÉ S.A., priority 2023, published 2026)

Test system: human breast milk-fed infants
Assay: Regression association of breast milk HMO levels with IBQ-R negative affectivity in infants
Assay type: in vivo
Description: In some embodiments, social-emotional skills are determined by an Infant Behavior Questionnaire (IBQ), such as the IBQ-Revised (IBQ-R). The “IBQ-R (revised Infant Behavior Questionnaire) questionnaire” is a widely used parent-report measure for assessing dimensions of temperament along 14 scales, as reported below, in infants between 3 and 12 months of age (see e.g. Gartstein, M. A. and Rothbart, M. K., 2003. Infant behavior and development, 26(1), pp. 64-86).
The subject's negative affectivity can be determined by any suitable method. In some embodiments, the subject's negative affectivity is determined by an Infant Behavior Questionnaire (IBQ), for example the IBQ-Revised (IBQ-R). For example, negative affectivity may be a domain constructed out of the following scales on the IBQ-R: sadness, fear, distress to limitations, activity level, and falling reactivity. The one or more HMOs according to the present invention may reduce sadness, fear, and/or distress to limitations. The one or more HMOs according to the present invention may improve activity level and/or rate of recovery from distress.
A total of 195 infants were tested. Breastmilk HMO levels were tested in breastmilk collected at two months and three months. Infant behaviours were assessed with an Infant Behaviour Questionnaire-Revised (IBQ-R). […]

## Lacto-N-difucohexaose I [LNDFHI]
Breast milk collected at 2 months, negative affectivity of infants at 9 months, N=195
  IBQR: Reduced
Infants at 9 months, breast milk HMO levels
  association with negative emotions in infants: associated with reduction in negative emotions
